Test results published in ChEMBL document CHEMBL5726571, “5-hydroxytryptamine receptor 7 activity modulators and their method of use” (2017).

Target: 5-hydroxytryptamine receptor 7 (Homo sapiens, UniProt P34969)
Assay: Radiolabel Binding Assay: A stock concentration of 5 nM [3H]LSD (lysergic acid diethyl amide) is prepared in 50 mM Tris-HCl, 10 mM MgCl2, 1 mM EDTA, pH 7.4 (Assay Buffer). Aliquots (50 μl) of radioligand are dispensed into the wells of a 96-well plate containing 100 μl of Assay Buffer. Duplicate 50-μl aliquots of the compound of the disclosure test and chlorpromazine positive control reference compound serial dilutions are added.Membrane fractions of cells expressing recombinant 5HT7 receptors (50 μL) are dispensed into each well. The membranes are prepared from stably tranfected cell lines expressing 5HT7 receptors cultured on 10-cm plates by harvesting PBS-rinsed monolayers, resuspending and lysing in chilled, hypotonic 50 mM Tris-HCl, pH 7.4, centrifuging at 20,000×g, decanting the supernatant and storing at −80° C.; the membrane preparations are resuspended in 3 ml of chilled Assay Buffer and homogenized by several passages through a 26 gauge needle before using in the assay.

Chain of 5-hydroxytryptamine receptor 7 (P34969 whole entry): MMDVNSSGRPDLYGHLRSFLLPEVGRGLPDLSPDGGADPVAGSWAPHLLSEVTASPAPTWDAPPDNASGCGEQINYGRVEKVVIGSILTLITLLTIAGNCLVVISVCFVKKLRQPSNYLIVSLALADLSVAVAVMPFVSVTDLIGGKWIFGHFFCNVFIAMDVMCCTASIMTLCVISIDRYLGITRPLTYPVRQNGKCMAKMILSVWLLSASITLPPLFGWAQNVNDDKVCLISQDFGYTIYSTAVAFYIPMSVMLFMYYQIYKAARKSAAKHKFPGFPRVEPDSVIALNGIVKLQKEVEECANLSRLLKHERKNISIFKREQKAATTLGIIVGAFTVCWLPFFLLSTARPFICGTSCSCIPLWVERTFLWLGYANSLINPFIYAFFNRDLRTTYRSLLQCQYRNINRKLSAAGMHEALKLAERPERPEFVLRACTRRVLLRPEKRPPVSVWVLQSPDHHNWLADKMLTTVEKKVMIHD

**Q.** With `O=C1OC(CCN2CCN(c3cccnc3)CC2)CC12CCCCC2` (stereo not drawn) as the molecule, how does the IC50 read?
**A.** The IC50 was 0.749 µM.

**Q.** How did the IC50 turn out when `CCC1(CC)CC(CCN2CCN(c3c(C)cccc3C)CC2)OC1=O` (stereo not drawn) was run?
**A.** Its IC50 is 1.38 µM.

**Q.** With `CCC1(CC)CC(CCN2CCN(c3ccc(C#N)cc3)CC2)OC1=O` (stereo not drawn) as the molecule, how does the IC50 read?
**A.** The IC50 was 0.134 µM.

**Q.** With `CCC1(CC)CC(CCN2CCN(c3cccc(O)c3)CC2)OC1=O` (stereo not drawn) as the molecule, how does the IC50 read?
**A.** Its IC50 is 0.324 µM.

**Q.** How did the IC50 turn out when `COc1cccc(N2CCN(CCC3CC4(CCCCC4)C(=O)O3)CC2)c1` (stereo not drawn) was run?
**A.** The IC50 was 0.056 µM.

**Q.** For `O=C1OC(CCN2CCN(c3ccc(C(F)(F)F)cc3)CC2)CC12CCCCC2` (stereo not drawn), which IC50 is on record?
**A.** Its IC50 is 0.183 µM.

**Q.** With `CCC1(CC)CC(CCN2CCN(c3ccccc3OC)CC2)OC1=O` (stereo not drawn) as the molecule, how does the IC50 read?
**A.** Its IC50 is 0.118 µM.

**Q.** Which IC50 does the source give for `CCC1(CC)CC(CCN2CCc3ccccc3C2)OC1=O` (stereo not drawn) here?
**A.** The IC50 was 0.013 µM.

**Q.** `CCC1(CC)CC(CCN2CCN(c3ccc(C(O)(c4ccccc4)c4ccccc4)cc3)CC2)OC1=O` (stereo not drawn) was tested. Which IC50 did it give?
**A.** The IC50 was 3.16 µM.

**Q.** Which IC50 does the source give for `CCC1(CC)CC(CCN2CCN(c3cccc(OC)c3)CC2)OC1=O` (stereo not drawn) here?
**A.** Its IC50 is 0.165 µM.

**Q.** With `CCC1(CC)CC(CCN2CCN(c3ccc(C)cc3C)CC2)OC1=O` (stereo not drawn) as the molecule, how does the IC50 read?
**A.** The IC50 was 0.363 µM.

**Q.** Which IC50 does the source give for `CC(C)c1ccccc1N1CCN(CCC2CC3(CCCC3)C(=O)O2)CC1` (stereo not drawn) here?
**A.** Its IC50 is 0.024 µM.

**Q.** Which IC50 does the source give for `COc1ccccc1N1CCN(CCC2CC3(CCCCC3)C(=O)O2)CC1` (stereo not drawn) here?
**A.** The IC50 was 0.072 µM.

**Q.** With `CCC1(CC)CC(CCN2CCN(c3ccc([N+](=O)[O-])cc3)CC2)OC1=O` (stereo not drawn) as the molecule, how does the IC50 read?
**A.** Its IC50 is 0.054 µM.

**Q.** With `CCC1(CC)CC(CCN2CCN(c3ccc(N)cc3)CC2)OC1=O` (stereo not drawn) as the molecule, how does the IC50 read?
**A.** Its IC50 is 0.471 µM.

**Q.** For `CCC1(CC)CC(CCN2CCN(c3ccc(O)cc3)CC2)OC1=O` (stereo not drawn), which IC50 is on record?
**A.** Its IC50 is 0.089 µM.

**Q.** With `O=C1OC(CCN2CCN(c3ccc(C(F)(F)F)cn3)CC2)CC12CCCCC2` (stereo not drawn) as the molecule, how does the IC50 read?
**A.** The IC50 was 0.254 µM.

**Q.** `CC(C)(C)c1ccccc1N1CCN(CCC2CC3(CCCC3)C(=O)O2)CC1` (stereo not drawn) was tested. Which IC50 did it give?
**A.** The IC50 was 1.92 µM.

**Q.** For `CCC1(CC)CC(CCN2CCN(C3CCCCC3)CC2)OC1=O` (stereo not drawn), which IC50 is on record?
**A.** The IC50 was 3.76 µM.

**Q.** For `CCC1(CC)CC(CCN2CCN(c3ccccc3C)CC2)OC1=O` (stereo not drawn), which IC50 is on record?
**A.** Its IC50 is 0.104 µM.

**Q.** Which IC50 does the source give for `Cc1ccc(N2CCN(CCCC3CC(c4ccccc4)(c4ccccc4)C(=O)O3)CC2)cc1` (stereo not drawn) here?
**A.** Its IC50 is 0.146 µM.

**Q.** `Cc1ccc(N2CCN(CCC3CC(c4ccccc4)(c4ccccc4)C(=O)O3)CC2)cc1` (stereo not drawn) was tested. Which IC50 did it give?
**A.** The IC50 was 0.145 µM.

**Q.** Which IC50 does the source give for `O=C1OC(CCN2CCN(c3ccccn3)CC2)CC12CCCCC2` (stereo not drawn) here?
**A.** Its IC50 is 0.044 µM.

**Q.** `O=C1OC(CCN2CCN(c3ccccc3)CC2)CC12CCCCC2` (stereo not drawn) was tested. Which IC50 did it give?
**A.** Its IC50 is 0.033 µM.

**Q.** How did the IC50 turn out when `CCC1(CC)CC(CCN2CCN(C(c3ccccc3)c3ccccc3)CC2)OC1=O` (stereo not drawn) was run?
**A.** The IC50 was 0.083 µM.

**Q.** With `CCC1(CC)CC(CCN2CCN(c3ccccc3O)CC2)OC1=O` (stereo not drawn) as the molecule, how does the IC50 read?
**A.** Its IC50 is 0.156 µM.

**Q.** For `CCC1(CC)CC(CCN2CCN(c3ccccc3)CC2)OC1=O` (stereo not drawn), which IC50 is on record?
**A.** The IC50 was 0.021 µM.

**Q.** Which IC50 does the source give for `N#Cc1ccc(N2CCN(CCC3CC4(CCCCC4)C(=O)O3)CC2)nc1` (stereo not drawn) here?
**A.** The IC50 was 1.52 µM.
